Reference: PubChem BioAssay AID248 (DTP/NCI, 2004)
Several values for one entry are separate records, joined by “and”; a condition that tells them apart may be missing. Equal entries are not always repeated. Inconclusive results and toxic doses are left out. Cut-off read from the data, not from the text of the source: active = T/C of 150% or more; inactive = T/C below 125%.

Tested on: L1210 leukemia ip in BDF1 mice, survival T/C
Test: NCI In Vivo Anticancer Drug Screen. Data for tumor model L1210 Leukemia (intraperitoneal) in B6D2F1 (BDF1) mice
Conditions: endpoint: mean survival time, higher = longer survival
How it was run: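 Ratio derived from survival: compound-dosed mice over vehicle-dosed mice, all bearing a transplantable tumor.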

[1] = dose: 100.0 mg/kg/injection, schedule: Q04DX003 (ip), vehicle: Klucel (hydroxypropylcellulose) (HPC)
[2] = dose: 200.0 mg/kg/injection, schedule: Q04DX003 (ip), vehicle: Klucel (hydroxypropylcellulose) (HPC)
[3] = dose: 400.0 mg/kg/injection, schedule: Q04DX003 (ip), vehicle: Klucel (hydroxypropylcellulose) (HPC)
[4] = dose: 100.0 mg/kg/injection, schedule: Q01DX001 (ip), vehicle: saline
[5] = dose: 200.0 mg/kg/injection, schedule: Q01DX001 (ip), vehicle: saline
[6] = dose: 400.0 mg/kg/injection, schedule: Q01DX001 (ip), vehicle: saline
[7] = dose: 100.0 mg/kg/injection, schedule: Q01DX001 (ip), vehicle: saline with Tween-80
[8] = dose: 200.0 mg/kg/injection, schedule: Q01DX001 (ip), vehicle: saline with Tween-80
[9] = dose: 400.0 mg/kg/injection, schedule: Q01DX001 (ip), vehicle: saline with Tween-80
[10] = dose: 100.0 mg/kg/injection, schedule: Q04DX002 (ip), vehicle: Klucel (hydroxypropylcellulose) (HPC)
[11] = dose: 50.0 mg/kg/injection, schedule: Q04DX003 (ip), vehicle: saline
[12] = dose: 100.0 mg/kg/injection, schedule: Q04DX003 (ip), vehicle: saline
[13] = dose: 200.0 mg/kg/injection, schedule: Q04DX003 (ip), vehicle: saline
[14] = dose: 100.0 mg/kg/injection, schedule: Q01DX009 (ip), vehicle: saline
[15] = dose: 200.0 mg/kg/injection, schedule: Q01DX009 (ip), vehicle: saline
[16] = dose: 25.0 mg/kg/injection, schedule: Q04DX003 (ip), vehicle: saline

Measured: T/C

Nc1ncnc2nc[nH]c12.[Tl]
inactive: dose: 3.12 mg/kg/injection, schedule: Q01DX009 (ip), vehicle: water 95 % of control | dose: 3.12 mg/kg/injection, schedule: Q04DX003 (ip), vehicle: water 103 % of control | dose: 6.25 mg/kg/injection, schedule: Q01DX009 (ip), vehicle: water 95 % of control | dose: 6.25 mg/kg/injection, schedule: Q04DX003 (ip), vehicle: water 108 % of control | dose: 12.5 mg/kg/injection, schedule: Q04DX003 (ip), vehicle: water 105 % of control

CN(Cc1cc(Br)cc(Br)c1O)C1CC2CCC1(C)C2(C)C (stereo not drawn)
inactive: [1] 88 % of control | [2] 95 % of control | [3] 88 % of control

BrCC12CCC1(CBr)COC2 (stereo not drawn)
inactive: [4] 99 % of control | [5] 103 % of control | [6] 101 % of control

Cc1c(C#N)c2nc(C(=O)c3ccc(Br)cc3)cc(-c3ccc(Br)cc3)n2c1C
inactive: dose: 50.0 mg/kg/injection, schedule: Q04DX003 (ip), vehicle: saline with Tween-80 98 % of control | dose: 100.0 mg/kg/injection, schedule: Q04DX003 (ip), vehicle: saline with Tween-80 111 % of control | dose: 200.0 mg/kg/injection, schedule: Q04DX003 (ip), vehicle: saline with Tween-80 103 % of control | dose: 400.0 mg/kg/injection, schedule: Q04DX003 (ip), vehicle: saline with Tween-80 106 % of control

NC(=O)NNC(=O)C(Cl)(Cl)Cl
inactive: dose: 25.0 mg/kg/injection, schedule: Q04DX002 (ip), vehicle: saline 108 % of control | dose: 50.0 mg/kg/injection, schedule: Q04DX002 (ip), vehicle: saline 99 % of control | dose: 100.0 mg/kg/injection, schedule: Q04DX002 (ip), vehicle: saline 101 % of control

CNc1c(Cl)n(C)c(=O)n(C)c1=O
inactive: dose: 50.0 mg/kg/injection, schedule: Q01DX001 (ip), vehicle: saline 101 % of control | [4] 101 % of control | [5] 104 % of control | [6] 101 % of control

CCCCC[CH2][Sn](=[O])[CH2]CCCCC
inactive: [7] 105 % of control | [8] 100 % of control | [9] 103 % of control

Cc1cc2c([N+](=O)[O-])c3ccc(Cl)nn3c2n[n+]1[O-]
inactive: dose: 62.5 mg/kg/injection, schedule: Q04DX002 (ip), vehicle: Klucel (hydroxypropylcellulose) (HPC) 106 % of control | dose: 125.0 mg/kg/injection, schedule: Q04DX002 (ip), vehicle: Klucel (hydroxypropylcellulose) (HPC) 114 % of control | dose: 250.0 mg/kg/injection, schedule: Q04DX002 (ip), vehicle: Klucel (hydroxypropylcellulose) (HPC) 95 % of control

CCOc1ccc([N+](=O)[O-])cc1
inactive: [10] 100 % of control | dose: 200.0 mg/kg/injection, schedule: Q04DX002 (ip), vehicle: Klucel (hydroxypropylcellulose) (HPC) 91 % of control | dose: 400.0 mg/kg/injection, schedule: Q04DX002 (ip), vehicle: Klucel (hydroxypropylcellulose) (HPC) 103 % of control

CCOC(OCC)n1ncnc1NC(=S)NCc1ccccc1
inactive: [11] 100 % of control | [12] 100 % of control | [13] 97 % of control

CC(C)c1nnnn1C12CC3CC(CC(C3)C1)C2
inactive: [4] 101 % of control | [5] 101 % of control | [6] 93 % of control

COC(=O)c1ccc(OC(=S)N(C)C)cc1
inactive: [1] 93 % of control | [2] 98 % of control | [3] 95 % of control

CC(=O)NCCO
inactive: [7] 100 % of control | [8] 105 % of control | [9] 100 % of control

O=S1(=O)CC(CBr)=C(CBr)C1
inactive: dose: 15.0 mg/kg/injection, schedule: Q01DX001 (ip), vehicle: carboxymethylcellulose (CMC) 94 % of control | dose: 30.0 mg/kg/injection, schedule: Q01DX001 (ip), vehicle: carboxymethylcellulose (CMC) 93 % of control | dose: 60.0 mg/kg/injection, schedule: Q01DX001 (ip), vehicle: carboxymethylcellulose (CMC) 100 % of control

NNC(=O)CCc1ccccc1O
inactive: dose: 100.0 mg/kg/injection, schedule: Q01DX009 (ip), vehicle: saline with Tween-80 93 % of control | dose: 200.0 mg/kg/injection, schedule: Q01DX009 (ip), vehicle: saline with Tween-80 91 % of control | dose: 400.0 mg/kg/injection, schedule: Q01DX009 (ip), vehicle: saline with Tween-80 93 % of control

CC(=O)[C@@]12OC(C)(C)O[C@@H]1C[C@H]1[C@@H]3C[C@H](C)C4=CC(=O)CC[C@]4(C)[C@H]3CC[C@@]12C
inactive: dose: 100.0 mg/kg/injection, schedule: Q01DX001 (ip), vehicle: steriod suspending solution 103 % of control | dose: 100.0 mg/kg/injection, schedule: Q04DX003 (ip), vehicle: steriod suspending solution 100 % of control | dose: 200.0 mg/kg/injection, schedule: Q01DX001 (ip), vehicle: steriod suspending solution 98 % of control | dose: 200.0 mg/kg/injection, schedule: Q04DX003 (ip), vehicle: steriod suspending solution 98 % of control | dose: 400.0 mg/kg/injection, schedule: Q01DX001 (ip), vehicle: steriod suspending solution 97 % of control | dose: 400.0 mg/kg/injection, schedule: Q04DX003 (ip), vehicle: steriod suspending solution 97 % of control

CCCCNC(=O)Nc1ccc(Nc2ccccc2)cc1
inactive: dose: 100.0 mg/kg/injection, schedule: Q01DX009 (ip), vehicle: gum acacia 88 % of control | dose: 100.0 mg/kg/injection, schedule: Q04DX003 (ip), vehicle: gum acacia 88 % of control | dose: 200.0 mg/kg/injection, schedule: Q01DX009 (ip), vehicle: gum acacia 108 % of control | dose: 200.0 mg/kg/injection, schedule: Q04DX003 (ip), vehicle: gum acacia 96 % of control | dose: 400.0 mg/kg/injection, schedule: Q04DX003 (ip), vehicle: gum acacia 96 % of control

CCCC(=O)C(CC)C(O)(C(F)(F)F)C(F)(F)F (stereo not drawn)
inactive: [14] 92 % of control | [15] 94 % of control

O=CC(CCN1CCCC1)(CCN1CCCC1)c1cccc2ccccc12
inactive: dose: 12.5 mg/kg/injection, schedule: Q04DX003 (ip), vehicle: saline 97 % of control | [16] 108 % of control | [11] 93 % of control

N#Cc1ccc(N=C(N)N[N+](=O)[O-])cc1
inactive: dose: 25.0 mg/kg/injection, schedule: Q04DX002 (ip), vehicle: Klucel (hydroxypropylcellulose) (HPC) 96 % of control | dose: 50.0 mg/kg/injection, schedule: Q04DX002 (ip), vehicle: Klucel (hydroxypropylcellulose) (HPC) 104 % of control | [10] 104 % of control

CC(=O)OS(=O)(=O)c1ccc(C)cc1
inactive: [14] 98 % of control | [12] 94 % of control | [15] 90 % of control | [13] 92 % of control | dose: 400.0 mg/kg/injection, schedule: Q04DX003 (ip), vehicle: saline 89 % of control

CCCCS(=O)(=O)N1CCCCC1C (stereo not drawn)
inactive: dose: 25.0 mg/kg/injection, schedule: Q04DX002 (ip), vehicle: saline with Tween-80 96 % of control | dose: 50.0 mg/kg/injection, schedule: Q04DX002 (ip), vehicle: saline with Tween-80 96 % of control | dose: 100.0 mg/kg/injection, schedule: Q04DX002 (ip), vehicle: saline with Tween-80 86 % of control

CCCC(O)C(CC)CO (stereo not drawn)
inactive: [14] 102 % of control | [15] 100 % of control | dose: 400.0 mg/kg/injection, schedule: Q01DX009 (ip), vehicle: saline 104 % of control

CC1Nc2ccccc2-c2ccccc2C1=O (stereo not drawn)
inactive: dose: 100.0 mg/kg/injection, schedule: Q01DX001 (ip), vehicle: carboxymethylcellulose (CMC) 107 % of control | dose: 200.0 mg/kg/injection, schedule: Q01DX001 (ip), vehicle: carboxymethylcellulose (CMC) 102 % of control | dose: 400.0 mg/kg/injection, schedule: Q01DX001 (ip), vehicle: carboxymethylcellulose (CMC) 102 % of control

CC1CCCCN1CCCO (stereo not drawn)
inactive: dose: 25.0 mg/kg/injection, schedule: Q01DX009 (ip), vehicle: saline 87 % of control | [16] 103 % of control | dose: 50.0 mg/kg/injection, schedule: Q01DX009 (ip), vehicle: saline 91 % of control | [11] 112 % of control | [14] 89 % of control | [12] 92 % of control and 95 % of control
